Assay results reported in US20220281848A1, “PYRAZOLE-SUBSTITUTED PYRROLIDINONES AS HERBICIDES” (FMC Corporation, priority 2019, published 2022).

Columns and labels:
Type in all cases: in vivo
Details in all cases: after 13 d
corn (Zea mays, ZEAMX) [1] = assay: Test A pre-emergence, corn
Experimental: (§1) Seeds of corn (Zea mays, ZEAMX), giant foxtail (Setaria faberi, SETFA), barnyardgrass (Echinochloa crus-galli, ECHCG), ivy-leaved morning glory (Ipomoea hederacea, IPOHE), redroot pigweed (Amaranthus retroflexus, AMARE) and velvetleaf (Abutilon theophrasti, ABUTH) were sown in standard soil in pots. After cultivation for one day under controlled conditions in a glasshouse (at 24/16° C., day/night; 14 h light; 65% humidity), the plants were sprayed with an aqueous spray solution derived from the formulation of the technical active ingredient in acetone/water (50:50) solution containing 0.5% Tween 20 (polyoxyethylene sorbitan monolaurate, CAS RN 9005-64-5) to give a final dose of 15.625, 62.5 or 250 g/ha of test compound.
(§2) The test plants were then grown under controlled conditions in a glasshouse (at 24/16° C., day/night; 14 h light; 65% humidity) and watered twice daily. After 13 d the test was evaluated (100=total damage to plant; 0=no damage to plant).

[2] = system: giant foxtail (Setaria faberi, SETFA); assay: Test A pre-emergence, giant foxtail
Experimental: as §1, §2

[3] = system: barnyardgrass (Echinochloa crus-galli, ECHCG); assay: Test A pre-emergence, barnyardgrass
Experimental: as §1, §2

[4] = system: ivy-leaved morning glory (Ipomoea hederacea, IPOHE); assay: Test A pre-emergence, ivy-leaved morning glory
Experimental: as §1, §2

[5] = system: redroot pigweed (Amaranthus retroflexus, AMARE); assay: Test A pre-emergence, redroot pigweed
Experimental: as §1, §2

[6] = system: velvetleaf (Abutilon theophrasti, ABUTH); assay: Test A pre-emergence, velvetleaf
Experimental: as §1, §2

corn (Zea mays, ZEAMX) [7] = assay: Test A post-emergence, corn
Experimental: as §1, with “IPOHE)),” for “IPOHE),”, “8 d” for “one day”
(§3) The test plants were then grown on under controlled conditions in a glasshouse (at 24/16° C., day/night; 14 h light; 65% humidity) and watered twice daily. After 13 d the test was evaluated (100=total damage to plant; 0=no damage to plant).

[8] = system: giant foxtail (Setaria faberi, SETFA); assay: Test A post-emergence, giant foxtail
Experimental: as §1, with “IPOHE)),” for “IPOHE),”, “8 d” for “one day”
as §3

[9] = system: barnyardgrass (Echinochloa crus-galli, ECHCG); assay: Test A post-emergence, barnyardgrass
Experimental: as §1, with “IPOHE)),” for “IPOHE),”, “8 d” for “one day”
as §3

[10] = system: ivy-leaved morning glory (Ipomoea hederacea, IPOHE); assay: Test A post-emergence, ivy-leaved morning glory
Experimental: as §1, with “IPOHE)),” for “IPOHE),”, “8 d” for “one day”
as §3

[11] = system: redroot pigweed (Amaranthus retroflexus, AMARE); assay: Test A post-emergence, redroot pigweed
Experimental: as §1, with “IPOHE)),” for “IPOHE),”, “8 d” for “one day”
as §3

[12] = system: velvetleaf (Abutilon theophrasti, ABUTH); assay: Test A post-emergence, velvetleaf
Experimental: as §1, with “IPOHE)),” for “IPOHE),”, “8 d” for “one day”
as §3

| SMILES | damage to plant (100=total damage; 0=no damage) ZEAMX (corn (Zea mays, ZEAMX) [1]; Pre-Emergence at 15.625 g/ha) | damage to plant (100=total damage; 0=no damage) ZEAMX (corn (Zea mays, ZEAMX) [1]; Pre-Emergence at 62.5 g/ha) | damage to plant (100=total damage; 0=no damage) ZEAMX (corn (Zea mays, ZEAMX) [1]; Pre-Emergence at 250 g/ha) | damage to plant (100=total damage; 0=no damage) SETFA ([2]; Pre-Emergence at 15.625 g/ha) | damage to plant (100=total damage; 0=no damage) SETFA ([2]; Pre-Emergence at 62.5 g/ha) | damage to plant (100=total damage; 0=no damage) SETFA ([2]; Pre-Emergence at 250 g/ha) | damage to plant (100=total damage; 0=no damage) ECHCG ([3]; Pre-Emergence at 15.625 g/ha) | damage to plant (100=total damage; 0=no damage) ECHCG ([3]; Pre-Emergence at 62.5 g/ha) | damage to plant (100=total damage; 0=no damage) ECHCG ([3]; Pre-Emergence at 250 g/ha) | damage to plant (100=total damage; 0=no damage) IPOHE ([4]; Pre-Emergence at 15.625 g/ha) | damage to plant (100=total damage; 0=no damage) IPOHE ([4]; Pre-Emergence at 62.5 g/ha) | damage to plant (100=total damage; 0=no damage) IPOHE ([4]; Pre-Emergence at 250 g/ha) | damage to plant (100=total damage; 0=no damage) AMARE ([5]; Pre-Emergence at 15.625 g/ha) | damage to plant (100=total damage; 0=no damage) AMARE ([5]; Pre-Emergence at 62.5 g/ha) | damage to plant (100=total damage; 0=no damage) AMARE ([5]; Pre-Emergence at 250 g/ha) | damage to plant (100=total damage; 0=no damage) ABUTH ([6]; Pre-Emergence at 15.625 g/ha) | damage to plant (100=total damage; 0=no damage) ABUTH ([6]; Pre-Emergence at 62.5 g/ha) | damage to plant (100=total damage; 0=no damage) ABUTH ([6]; Pre-Emergence at 250 g/ha) | damage to plant (100=total damage; 0=no damage) ZEAMX (corn (Zea mays, ZEAMX) [7]; Post-Emergence at 15.625 g/ha) | damage to plant (100=total damage; 0=no damage) ZEAMX (corn (Zea mays, ZEAMX) [7]; Post-Emergence at 62.5 g/ha) | further results |
| --- | --- | --- | --- | --- | --- | --- | --- | --- | --- | --- | --- | --- | --- | --- | --- | --- | --- | --- | --- | --- | --- |
| CN1CC(c2cc(Cl)n(C)n2)C(C(=O)Nc2cccc(F)c2F)C1=O (racemic) [Compound 27] | 0 | 10 | 10 | 60 | 80 | 90 | 70 | 90 | 90 | 0 | 0 | 10 | 0 | 0 | 0 | 0 | 0 | 0 | 0 | 0 | damage to plant (100=total damage; 0=no damage) ZEAMX (corn (Zea mays, ZEAMX) [7]; Post-Emergence at 250 g/ha): 10; damage to plant (100=total damage; 0=no damage) SETFA ([8]; Post-Emergence at 15.625 g/ha): 10; damage to plant (100=total damage; 0=no damage) SETFA ([8]; Post-Emergence at 62.5 g/ha): 50; damage to plant (100=total damage; 0=no damage) SETFA ([8]; Post-Emergence at 250 g/ha): 70; damage to plant (100=total damage; 0=no damage) ECHCG ([9]; Post-Emergence at 15.625 g/ha): 20; damage to plant (100=total damage; 0=no damage) ECHCG ([9]; Post-Emergence at 62.5 g/ha): 50; damage to plant (100=total damage; 0=no damage) ECHCG ([9]; Post-Emergence at 250 g/ha): 70; damage to plant (100=total damage; 0=no damage) IPOHE ([10]; Post-Emergence at 15.625 g/ha): 10; damage to plant (100=total damage; 0=no damage) IPOHE ([10]; Post-Emergence at 62.5 g/ha): 10; damage to plant (100=total damage; 0=no damage) IPOHE ([10]; Post-Emergence at 250 g/ha): 20; damage to plant (100=total damage; 0=no damage) AMARE ([11]; Post-Emergence at 15.625 g/ha): 30; damage to plant (100=total damage; 0=no damage) AMARE ([11]; Post-Emergence at 62.5 g/ha): 40; damage to plant (100=total damage; 0=no damage) AMARE ([11]; Post-Emergence at 250 g/ha): 30; damage to plant (100=total damage; 0=no damage) ABUTH ([12]; Post-Emergence at 15.625 g/ha): 0; damage to plant (100=total damage; 0=no damage) ABUTH ([12]; Post-Emergence at 62.5 g/ha): 0; damage to plant (100=total damage; 0=no damage) ABUTH ([12]; Post-Emergence at 250 g/ha): 0 |
| CN1CC(c2nn(C)c(Cl)c2Br)C(C(=O)Nc2cccc(F)c2F)C1=O (racemic) [Compound 28] | 0 | 0 | 0 | 20 | 80 | 90 | 30 | 70 | 90 | 0 | 0 | 0 | 0 | 0 | 0 | 0 | 0 | 0 | 0 | 0 | damage to plant (100=total damage; 0=no damage) ZEAMX (corn (Zea mays, ZEAMX) [7]; Post-Emergence at 250 g/ha): 0; damage to plant (100=total damage; 0=no damage) SETFA ([8]; Post-Emergence at 15.625 g/ha): 10; damage to plant (100=total damage; 0=no damage) SETFA ([8]; Post-Emergence at 62.5 g/ha): 30; damage to plant (100=total damage; 0=no damage) SETFA ([8]; Post-Emergence at 250 g/ha): 70; damage to plant (100=total damage; 0=no damage) ECHCG ([9]; Post-Emergence at 15.625 g/ha): 30; damage to plant (100=total damage; 0=no damage) ECHCG ([9]; Post-Emergence at 62.5 g/ha): 50; damage to plant (100=total damage; 0=no damage) ECHCG ([9]; Post-Emergence at 250 g/ha): 70; damage to plant (100=total damage; 0=no damage) IPOHE ([10]; Post-Emergence at 15.625 g/ha): 0; damage to plant (100=total damage; 0=no damage) IPOHE ([10]; Post-Emergence at 62.5 g/ha): 0; damage to plant (100=total damage; 0=no damage) IPOHE ([10]; Post-Emergence at 250 g/ha): 0; damage to plant (100=total damage; 0=no damage) AMARE ([11]; Post-Emergence at 15.625 g/ha): 30; damage to plant (100=total damage; 0=no damage) AMARE ([11]; Post-Emergence at 62.5 g/ha): 40; damage to plant (100=total damage; 0=no damage) AMARE ([11]; Post-Emergence at 250 g/ha): 50; damage to plant (100=total damage; 0=no damage) ABUTH ([12]; Post-Emergence at 15.625 g/ha): 0; damage to plant (100=total damage; 0=no damage) ABUTH ([12]; Post-Emergence at 62.5 g/ha): 0; damage to plant (100=total damage; 0=no damage) ABUTH ([12]; Post-Emergence at 250 g/ha): 0 |
